Laboratory results from US7090863B2, “Hypocholesterolemic composition and methods of use” (Inpharma S.A., priority 2001, dated 2006).

System: normocholesterolemic healthy male subjects
Test: Example 1 first phase: plasma lipoprotein variations after 15 days of soy bean proteins, β-sitosterol or their combination
Format: in vivo, human
Settings: in rapport to post-seven days of stabilisation diet values
Source text: For the first phase, 18 normocholesterolemic healthy male subjects (mean age: 32.5±8 years) have been enrolled. All subjects followed a stabilisation diet period of seven days during which they received some advises concerning their nourishment (according to the American Heart Association recommends), without any radical modification of their diet customs. A dietician monitored the patient dietary pattern trough the “Seven days questionnaire” for all the experimental duration. Patients were imposed to stop any nutritional supplementation. After this period, all subjects ingested for fifteen days 400 mg β-sitosterol two times/day (6 subjects), 1600 mg soy bean proteins two times/day (6 subjects) or a low dosage product containing soy proteins supplemented in β-sitosterol in a rapport 4:1 (offered and patented by Inpharma SA, Lugano, Switzerland), 2 g two times/day (6 subjects).
The hematochemistry measurements have been carried out on venous blood coming from antecubital harm vein, after 12 fasting hours after the stabilisation diet period and at the end. Blood has been collected into tubes […] heparin or other anticoagulant, plasma was immediately separated by high-speed centrifugation at 3500×g for twenty minutes. TC, HDL-C, TG, Glucose, and Uric acid have been determined with standardised enzymatic […] methods (Gaddi et al., 2001). LDL-C plasma level has been estimated with the Friedewald's formula [LDL-C=TC-(TG/5+HDL-C)], for TG<350 mg/dL.
Data have been sampled in a specific database and analysed with the help of the SPSS 8.0 statistical software. A normality Shapiro-Wilks test has been carried out on all the tested variables, followed by ANOVA and two-tails t-test for paired samples, when possible, and by a post-hoc Tukey's test. Percentages have been compared with the Fisher's exact test. Correlation degree between baseline plasma lipid levels and reduction obtained with the treatment were estimated with a Pearson's bivariate correlation test followed by linear regression. For all tests a “p” level less than 0.05 has been considered as significant.

## CC[C@H](CC[C@@H](C)[C@H]1CC[C@H]2[C@@H]3CC=C4C[C@@H](O)CC[C@]4(C)[C@H]3CC[C@]12C)C(C)C [β-sitosterol]
  Apolipoprotein Al variation: −0.1%
  Apolipoprotein B variation: −0.3%
  High Density Lipoproteins variation: +0.3%
  Low Density Lipoproteins variation: −4.9%
  Total Cholesterol variation: −3.2%
  Tryglycerides variation: −0.1%
  Very Low Density Lipoproteins variation: −0.2%
